The values that follow come from patent US10106504B2, “Pyridin-3-yl acetic acid derivatives as inhibitors of human immunodeficiency virus replication” (priority 2015, dated 2018).

In the first test the test system is NL-RLuc virus. As to the kind of experiment: Inhibition of HIV replication (NL-RLuc virus, luciferase readout in MT-2 cells). Format: cell-based. Conditions: Human immunodeficiency virus 1, MT2, 120 h, read-out: Activity. The text has this: Inhibition of HIV Replication:
A recombinant NL-RLuc proviral clone was constructed in which a section of the nef gene from NL4-3 was replaced with the Renilla Luciferase gene. This virus is fully infectious and can undergo multiple cycles of replication in cell culture. In addition, the luciferous reporter provides a simple and easy method for quantitating the extent of virus growth and consequently, the antiviral activity of test compounds. The plasmid pNLRLuc contains the proviral NL-Rluc DNA cloned into pUC18 at the PvuII site. The NL-RLuc virus was prepared by transfection of 293T cells with the plasmid pNLRLuc. Transfections were performed using the LipofectAMINE PLUS kit from Invitrogen (Carlsbad, Calif.) according to the manufacturer and the virus generated was titered in MT-2 cells. For susceptibility analyses, the titrated virus was used to infect MT-2 cells in the presence of compound, and after 5 days of incubation, cells were processed and quantitated for virus growth by the amount of expressed luciferase. Assay media was RPMI 1640 supplemented with 10% heat inactivated fetal bovine serum (FBS), 100 units/ml penicillin G/100 units/ml streptomycin, 10 mM HEPES buffer pH 7.55 and 2 mM L-glutamine. The results from at least 2 experiments were used to calculate the EC50 values. Luciferase was quantitated using the Dual Luciferase kit from Promega (Madison, Wis.). Susceptibility of viruses to compounds was determined by incubation in the presence of serial dilutions of the compound. The 50% effective concentration (EC50) was calculated by using the exponential form of the median effect equation where (Fa)=1/[1+(ED50/drug conc.)^m] (Johnson V A, Byington R T. Infectivity Assay. In Techniques in HIV Research. ed. Aldovini A, Walker BD. 71-76. New York: Stockton Press. 1990). Activity equal to A refers to a compound having an EC50<100 nM, while B and C denote compounds having an EC50 between 100 nM and 1 uM (B) or >1 uM (C).
For `Cc1nc(C)c([C@H](OC(C)(C)C)C(=O)O)c(-c2ccc3c(c2)CCCO3)c1-c1ccc2c(c1)CCN(Cc1cccc(F)c1)C2` [Example 24, (S)-2-(tert-Butoxy)-2-(4-(chroman-6-yl)-5-(2-(3-fluorobenzyl)-1,2,3,4-tetrahydroisoquinolin-6-yl)-2,6-dimethylpyridin-3-yl)acetic Acid], the EC50 is below 0.1 µM.

On to `Cc1cccc(F)c1CN1CCc2cc(-c3c(C)nc(C)c([C@H](OC(C)(C)C)C(=O)O)c3-c3ccc4c(c3)CCCO4)ccc2C1` [Example 25, (S)-2-(tert-Butoxy)-2-(4-(chroman-6-yl)-5-(2-(2-fluoro-6-methylbenzyl)-1,2,3,4-tetrahydroisoquinolin-6-yl)-2,6-dimethylpyridin-3-yl)acetic Acid], for which the EC50 was below 0.1 µM.

On to `Cc1cccc(CN2CCc3cc(-c4c(C)nc(C)c([C@H](OC(C)(C)C)C(=O)O)c4-c4ccc5c(c4)CCCO5)ccc3C2)c1F` [Example 26, (S)-2-(tert-Butoxy)-2-(4-(chroman-6-yl)-5-(2-(2-fluoro-3-methylbenzyl)-1,2,3,4-tetrahydroisoquinolin-6-yl)-2,6-dimethylpyridin-3-yl)acetic Acid], for which the EC50 was below 0.1 µM.

Take `Cc1nc(C)c([C@H](OC(C)(C)C)C(=O)O)c(-c2ccc3c(c2)CCCO3)c1-c1ccc2c(c1)CCN(Cc1ccccc1Cl)C2` [Example 27, (S)-2-(tert-Butoxy)-2-(5-(2-(2-chlorobenzyl)-1,2,3,4-tetrahydroisoquinolin-6-yl)-4-(chroman-6-yl)-2,6-dimethylpyridin-3-yl)acetic Acid]: the EC50 was below 0.1 µM.

`Cc1ccc(CN2CCc3cc(-c4c(C)nc(C)c([C@H](OC(C)(C)C)C(=O)O)c4-c4ccc5c(c4)CCCO5)ccc3C2)c(C)c1` [Example 28, (S)-2-(tert-Butoxy)-2-(4-(chroman-6-yl)-5-(2-(2,4-dimethylbenzyl)-1,2,3,4-tetrahydroisoquinolin-6-yl)-2,6-dimethylpyridin-3-yl)acetic Acid]: the EC50 is below 0.1 µM.

For the compound `Cc1cccc(Cl)c1CN1CCc2cc(-c3c(C)nc(C)c([C@H](OC(C)(C)C)C(=O)O)c3-c3ccc4c(c3)CCCO4)ccc2C1` [Example 29, (S)-2-(tert-Butoxy)-2-(5-(2-(2-chloro-6-methylbenzyl)-1,2,3,4-tetrahydroisoquinolin-6-yl)-4-(chroman-6-yl)-2,6-dimethylpyridin-3-yl)acetic Acid], the EC50 was below 0.1 µM.

In the case of `Cc1nc(C)c([C@H](OC(C)(C)C)C(=O)O)c(-c2ccc3c(c2)CCCO3)c1-c1ccc2c(c1)CCN(CCc1ccccc1F)C2` [Example 30, (S)-2-(tert-Butoxy)-2-(4-(chroman-6-yl)-5-(2-(2-fluorophenethyl)-1,2,3,4-tetrahydroisoquinolin-6-yl)-2,6-dimethylpyridin-3-yl)acetic Acid], the EC50 is below 0.1 µM.

As to `Cc1nc(C)c([C@H](OC(C)(C)C)C(=O)O)c(-c2ccc3c(c2)CCCO3)c1-c1ccc2c(c1)CCN(CCCc1ccc(F)cc1)C2` [Example 31, (S)-2-(tert-Butoxy)-2-(4-(chroman-6-yl)-5-(2-(3-(4-fluorophenyl)propyl)-1,2,3,4-tetrahydroisoquinolin-6-yl)-2,6-dimethylpyridin-3-yl)acetic Acid], the EC50 is below 0.1 µM.

On to `Cc1nc(CN(C)CC2CCOCC2)c(-c2ccc3c(c2)CCN(c2ncnc4c2cnn4C)C3)c(-c2ccc3c(c2)CCCO3)c1[C@H](OC(C)(C)C)C(=O)O` [Example 32, (S)-2-(tert-Butoxy)-2-(4-(chroman-6-yl)-2-methyl-6-((methyl((tetrahydro-2H-pyran-4-yl)methyl)amino)methyl)-5-(2-(1-methyl-1H-pyrazolo[3,4-d]pyrimidin-4-yl)-1,2,3,4-tetrahydroisoquinolin-6-yl)pyridin-3-yl)acetic Acid], for which the EC50 lay within 0.1 to 1 µM.

On to `Cc1cc(N2CCc3cc(-c4c(CN(C)CC5CCOCC5)nc(C)c([C@H](OC(C)(C)C)C(=O)O)c4-c4ccc5c(c4)CCCO5)ccc3C2)ncn1` [Example 33, (S)-2-(tert-Butoxy)-2-(4-(chroman-6-yl)-2-methyl-6-((methyl((tetrahydro-2H-pyran-4-yl)methyl)amino)methyl)-5-(2-(6-methylpyrimidin-4-yl)-1,2,3,4-tetrahydroisoquinolin-6-yl)pyridin-3-yl)acetic Acid], for which the EC50 lay within 0.1 to 1 µM.

As to `Cc1cccc(F)c1CN1CCc2cc(-c3c(CN(C)CC4CCOCC4)nc(C)c([C@H](OC(C)(C)C)C(=O)O)c3-c3ccc4c(c3)CCCO4)ccc2C1` [Example 34, (S)-2-(tert-Butoxy)-2-(4-(chroman-6-yl)-5-(2-(2-fluoro-6-methylbenzyl)-1,2,3,4-tetrahydroisoquinolin-6-yl)-2-methyl-6-((methyl((tetrahydro-2H-pyran-4-yl)methyl)amino)methyl)pyridin-3-yl)acetic Acid], the EC50 was below 0.1 µM.

Take `Cc1cccc(Cl)c1CN1CCc2cc(-c3c(CN(C)CC4CCOCC4)nc(C)c([C@H](OC(C)(C)C)C(=O)O)c3-c3ccc4c(c3)CCCO4)ccc2C1` [Example 35, (S)-2-(tert-Butoxy)-2-(5-(2-(2-chloro-6-methylbenzyl)-1,2,3,4-tetrahydroisoquinolin-6-yl)-4-(chroman-6-yl)-2-methyl-6-((methyl((tetrahydro-2H-pyran-4-yl)methyl)amino)methyl)pyridin-3-yl)acetic Acid]: the EC50 is below 0.1 µM.

Consider `Cc1nc(C)c([C@H](OC(C)(C)C)C(=O)O)c(-c2ccc3c(c2)C(F)(F)CCO3)c1-c1ccc(OCCc2ccc(F)cc2)cc1` [Example 36, (S)-2-(tert-Butoxy)-2-(4-(4,4-difluorochroman-6-yl)-5-(4-(4-fluorophenethoxy)phenyl)-2,6-dimethylpyridin-3-yl)acetic Acid], for which the EC50 was below 0.1 µM.

For the compound `Cc1nc(C)c([C@H](OC(C)(C)C)C(=O)O)c(-c2ccc3c(c2)C(F)(F)CCO3)c1-c1ccc2c(c1)CCN(Cc1ccccc1F)C2` [Example 37, (S)-2-(tert-Butoxy)-2-(4-(4,4-difluorochroman-6-yl)-5-(2-(2-fluorobenzyl)-1,2,3,4-tetrahydroisoquinolin-6-yl)-2,6-dimethylpyridin-3-yl)acetic Acid], the EC50 was below 0.1 µM.

Turning to `Cc1nc(C)c([C@H](OC(C)(C)C)C(=O)O)c(-c2cc(F)c3c(c2C)CCCO3)c1-c1ccc2c(c1)CCN(Cc1ccccc1F)C2` [Example 38, (2S)-2-(tert-Butoxy)-2-(4-(8-fluoro-5-methylchroman-6-yl)-5-(2-(2-fluorobenzyl)-1,2,3,4-tetrahydroisoquinolin-6-yl)-2,6-dimethylpyridin-3-yl)acetic Acid], the EC50 is below 0.1 µM.

As for `Cc1cccc(F)c1CN1CCc2cc(-c3c(C)nc(C)c([C@H](OC(C)(C)C)C(=O)O)c3-c3cc(F)c4c(c3C)CCCO4)ccc2C1` [Example 39, (2S)-2-(tert-Butoxy)-2-(4-(8-fluoro-5-methylchroman-6-yl)-5-(2-(2-fluoro-6-methylbenzyl)-1,2,3,4-tetrahydroisoquinolin-6-yl)-2,6-dimethylpyridin-3-yl)acetic Acid], the EC50 was below 0.1 µM.

`Cc1ccccc1CN1CCc2cc(-c3c(C)nc(C)c([C@H](OC(C)(C)C)C(=O)O)c3-c3cc(F)c4c(c3C)CCCO4)ccc2C1` [Example 40, (2S)-2-(tert-Butoxy)-2-(4-(8-fluoro-5-methylchroman-6-yl)-2,6-dimethyl-5-(2-(2-methylbenzyl)-1,2,3,4-tetrahydroisoquinolin-6-yl)pyridin-3-yl)acetic Acid]: the EC50 is below 0.1 µM.

As for `Cc1ccc(-c2c(-c3ccc4c(c3)CCN(Cc3c(C)cccc3F)C4)c(C)nc(C)c2[C@H](OC(C)(C)C)C(=O)O)cc1` [Example 41, (S)-2-(tert-Butoxy)-2-(5-(2-(2-fluoro-6-methylbenzyl)-1,2,3,4-tetrahydroisoquinolin-6-yl)-2,6-dimethyl-4-(p-tolyl)pyridin-3-yl)acetic Acid], the EC50 is below 0.1 µM.

With `Cc1ccc(-c2c(-c3ccc4c(c3)CCN(Cc3ccccc3F)C4)c(C)nc(C)c2[C@H](OC(C)(C)C)C(=O)O)cc1` [Example 42, (S)-2-(tert-Butoxy)-2-(5-(2-(2-fluorobenzyl)-1,2,3,4-tetrahydroisoquinolin-6-yl)-2,6-dimethyl-4-(p-tolyl)pyridin-3-yl)acetic Acid], the EC50 was below 0.1 µM.

With `Cc1nc(C)c([C@H](OC(C)(C)C)C(=O)O)c(-c2ccc3c4c(ccnc24)CCO3)c1-c1ccc(OCCc2ccc(F)cc2)cc1` [Example 43, (2S)-2-(tert-Butoxy)-2-(4-(2,3-dihydropyrano[4,3,2-de]quinolin-7-yl)-5-(4-(4-fluorophenethoxy)phenyl)-2,6-dimethylpyridin-3-yl)acetic Acid], the EC50 was 0.1 to 1 µM.

With `Cc1nc(C)c([C@H](OC(C)(C)C)C(=O)O)c(-c2ccc3c(c2)CCCO3)c1-c1ccc(OCCc2ccc(F)cc2F)cc1` [Example 44, (S)-2-(tert-Butoxy)-2-(4-(chroman-6-yl)-5-(4-(2,4-difluorophenethoxy)phenyl)-2,6-dimethylpyridin-3-yl)acetic Acid], the EC50 was below 0.1 µM.

Staying with this test, now noted: Human immunodeficiency virus 1, MT2, 120 h, read-out: EC50 μM.
Take `Cc1nc(C)c([C@H](OC(C)(C)C)C(=O)O)c(-c2ccc3c(c2)CCCO3)c1-c1ccc2c(c1)CCN(Cc1ccccc1Cl)C2` [Example 27, (S)-2-(tert-Butoxy)-2-(5-(2-(2-chlorobenzyl)-1,2,3,4-tetrahydroisoquinolin-6-yl)-4-(chroman-6-yl)-2,6-dimethylpyridin-3-yl)acetic Acid]: the EC50 is 0.005 µM.

As for `Cc1cc(N2CCc3cc(-c4c(CN(C)CC5CCOCC5)nc(C)c([C@H](OC(C)(C)C)C(=O)O)c4-c4ccc5c(c4)CCCO5)ccc3C2)ncn1` [Example 33, (S)-2-(tert-Butoxy)-2-(4-(chroman-6-yl)-2-methyl-6-((methyl((tetrahydro-2H-pyran-4-yl)methyl)amino)methyl)-5-(2-(6-methylpyrimidin-4-yl)-1,2,3,4-tetrahydroisoquinolin-6-yl)pyridin-3-yl)acetic Acid], the EC50 was found to be 0.282 µM.

Regarding `Cc1cccc(F)c1CN1CCc2cc(-c3c(C)nc(C)c([C@H](OC(C)(C)C)C(=O)O)c3-c3cc(F)c4c(c3C)CCCO4)ccc2C1` [Example 39, (2S)-2-(tert-Butoxy)-2-(4-(8-fluoro-5-methylchroman-6-yl)-5-(2-(2-fluoro-6-methylbenzyl)-1,2,3,4-tetrahydroisoquinolin-6-yl)-2,6-dimethylpyridin-3-yl)acetic Acid], the EC50 came to 0.024 µM.
